Active and inactive are the calls of the source. No cut-off for these calls is given here.
Columns and labels:
[1] = Cytotoxicity against human SJ-G2 cells after 72 hrs by MTT assay; format: cell-based
Haemonchus contortus = assay: Nematocidal activity against Haemonchus contortus Haecon 5 strain isolated from helminth-free Merino weaner sheep at 12.5 to 100 uM after 6 days by larval development assay; format: functional, organism-based
[2] = Cytotoxicity against human DU145 cells after 72 hrs by MTT assay; format: cell-based, DU-145
[3] = Cytotoxicity against human SW480 cells after 72 hrs by MTT assay; format: cell-based
[4] = Cytotoxicity against human A431 cells after 72 hrs by MTT assay; format: cell-based, A-431
[5] = Cytotoxicity against human A2780 cells after 72 hrs by MTT assay; format: cell-based
[6] = Cytotoxicity against human BE(2)-C cells after 72 hrs by MTT assay; format: cell-based
[7] = Cytotoxicity against human H460 cells after 72 hrs by MTT assay; format: cell-based; conditions: NCI-H460 cells
[8] = Cytotoxicity against human HT-29 cells after 72 hrs by MTT assay; format: cell-based
[9] = Cytotoxicity against human MCF7 cells after 72 hrs by MTT assay; format: cell-based

| Structure (SMILES) | GI50 at 72 h [1] [µM] | inhibition (Haemonchus contortus) | GI50 at 72 h [2] [µM] | GI50 at 72 h [3] [µM] | GI50 at 72 h [4] [µM] | GI50 at 72 h [5] [µM] | GI50 at 72 h [6] [µM] | GI50 at 72 h [7] [µM] | GI50 at 72 h [8] [µM] | GI50 at 72 h [9] [µM] |
| --- | --- | --- | --- | --- | --- | --- | --- | --- | --- | --- |
| O=C(O)C1C(C(=O)Nc2ccc(CO)cc2)[C@H]2CC[C@@H]1O2 (stereo partly specified) | 10 | inactive | 10 | 10 | 10 | 10 | 10 | 10 | 10 | 10 |
| CCCCCCCCCCCCN1C(=O)[C@@H]2[C@H](C1=O)[C@H]1CC[C@@H]2O1 |  | inactive |  |  |  |  |  |  |  |  |
| CCCCCNC(=O)[C@H]1N(Cc2ccccc2)C(=O)C2=C(C)[C@H]3C=C[C@]21O3 |  | inactive |  |  |  |  |  |  |  |  |
| CCOC(=O)c1cn[nH]c1NC(=O)C1C(C(=O)O)[C@@H]2CC[C@H]1O2 (stereo partly specified) | 10 | inactive | 10 | 10 | 10 | 10 | 10 | 10 | 10 | 10 |
| CN(C)CCOc1ccccc1N1C(=O)[C@@H]2[C@H](C1=O)[C@H]1CC[C@@H]2O1 | > 75 |  | > 75 | > 75 | > 75 | > 75 | > 75 | > 75 | > 75 | > 75 |
| CCCCCNC(=O)[C@H]1N(CCCN(C)C)C(=O)C2=C(CCCC)[C@H]3C=C[C@]21O3 |  | inactive |  |  |  |  |  |  |  |  |
| CN(C)CCOc1ccc(N2C(=O)[C@@H]3[C@H](C2=O)[C@H]2CC[C@@H]3O2)cc1 | > 75 |  | > 75 | > 75 | > 75 | > 75 | > 75 | > 75 | > 75 | > 75 |
| CCCCCCCCCCCCCCCCCCN1C(=O)[C@@H]2[C@H](C1=O)[C@H]1CC[C@@H]2O1 |  | inactive |  |  |  |  |  |  |  |  |
| COC(=O)CNC(=O)[C@@H]1N(CCCCCO)C(=O)C2=C(C)[C@H]3C=C[C@]21O3 |  | inactive |  |  |  |  |  |  |  |  |
| CCCCCNC(=O)[C@@H]1N(Cc2ccccc2)C(=O)C2=C(C)[C@H]3C=C[C@]21O3 |  | inactive |  |  |  |  |  |  |  |  |
| CCCCCCCCN1C(=O)C2=C(C)[C@H]3C=C[C@@]2(O3)[C@@H]1C(=O)NCC(=O)OCC |  | inactive |  |  |  |  |  |  |  |  |
| O=C(O)[C@H](Cc1ccc(O)cc1)N1C(=O)[C@@H]2[C@H](C1=O)[C@H]1CC[C@@H]2O1 | > 75 |  | > 75 | > 75 | > 75 | > 75 | > 75 | > 75 | > 75 | > 75 |
| COC(=O)CNC(=O)[C@H]1N(CCCCCO)C(=O)C2=C(C)[C@H]3C=C[C@]21O3 |  | inactive |  |  |  |  |  |  |  |  |
| O=C1[C@@H]2[C@H](C(=O)N1c1ncccc1OCc1ccccc1)[C@H]1CC[C@@H]2O1 | > 75 |  | > 75 | > 75 | > 75 | > 75 | > 75 | > 75 | > 75 | > 75 |
| CCCCCCCCN1C(=O)C2=C(C)[C@H]3C=C[C@@]2(O3)[C@H]1C(=O)NCC(=O)OCC |  | inactive |  |  |  |  |  |  |  |  |
| CCCCCCCCCCCCCCN1C(=O)[C@@H]2[C@H](C1=O)[C@H]1CC[C@@H]2O1 |  | inactive |  |  |  |  |  |  |  |  |
| CCCCCNC(=O)[C@@H]1N(CCCN(C)C)C(=O)C2=C(CCCC)[C@H]3C=C[C@]21O3 |  | inactive |  |  |  |  |  |  |  |  |
| O=C1[C@@H]2[C@H](C(=O)N1CCOP(=O)(OCC(Cl)(Cl)Cl)OCC(Cl)(Cl)Cl)[C@H]1CC[C@@H]2O1 | > 75 |  | > 75 | > 75 | > 75 | > 75 | > 75 | > 75 | > 75 | > 75 |

Reference: ChEMBL document CHEMBL1777719, “Norcantharidin analogues with nematocidal activity in Haemonchus contortus” (Bioorg Med Chem Lett, 2011)
